The record followed here is ChEMBL document CHEMBL4004849, “Tetrazolylmethyl quinolines: Design, docking studies, synthesis, anticancer and antifungal analyses” (2017).

Values after ≈ are worked out from the molar mass of the structure shown.

Common to all, as to assay type: functional
Assay [1] relates to Candida albicans. The assay is described as follows: Antifungal activity against Candida albicans at 100 ug/ml by disc diffusion method. Conditions: read-out: IZ.
In assay [2] the test system is Candida albicans. The assay is described as follows: Antifungal activity against Candida albicans after 24 hrs by serial dilution method.
For assay [3], the system named is Aspergillus fumigatus. The assay is described as follows: Antifungal activity against Aspergillus fumigatus at 100 ug/ml by disc diffusion method. Conditions: read-out: IZ.
Assay [4] deals with Aspergillus fumigatus. Description: Antifungal activity against Aspergillus fumigatus after 24 hrs by serial dilution method.

In the case of `COc1ccc2nc(Cl)c(Cn3nnc(CSc4ccccc4)n3)cc2c1`, the zone of inhibition at 100 µg/mL in the assay with Candida albicans [1] was 16 mm; with Aspergillus fumigatus [3] it was 20 mm. Moreover, the MIC in the assay on Candida albicans [2] is 25 µg/mL (≈ 62.8 µM); against Aspergillus fumigatus [4], 10 µg/mL (≈ 25.1 µM).

`Clc1nc2ccc(Br)cc2cc1Cn1nnc(CSc2ccccc2)n1`: the zone of inhibition at 100 µg/mL turned out to be 18 mm in the assay with Candida albicans [1] and 15 mm in the assay with Aspergillus fumigatus [3]. Further, the MIC stood at 25 µg/mL (≈ 56 µM) in the assay on Candida albicans [2] and 5 µg/mL (≈ 11.2 µM) against Aspergillus fumigatus [4].

On to `OC(Cn1cncn1)(Cn1cncn1)c1ccc(F)cc1F` [FLUCONAZOLE], for which the results for the zone of inhibition at 100 µg/mL in the assay with Candida albicans [1] and with Aspergillus fumigatus [3] were 24 mm and 26 mm, respectively. Also, the MIC in the assay on Candida albicans [2] and with Aspergillus fumigatus [4] was 30 µg/mL (≈ 98 µM) in each case.

Take `Cc1ccc2nc(Cl)c(Cn3nnc(Cc4ccccc4)n3)cc2c1`: the zone of inhibition at 100 µg/mL in the assay with Candida albicans [1] and in the assay on Aspergillus fumigatus [3] was 12 mm throughout. Further, the MIC against Candida albicans [2] and in the assay with Aspergillus fumigatus [4] was 25 µg/mL (≈ 71.5 µM) in each case.
